Measurements from PubChem BioAssay (NCI).
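A five-concentration, 48-hour dose response in 96-well plates underlies each endpoint, interpolated linearly between surrounding concentrations. At the TGI there is no net growth.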

Legend:
Assay in all cases: DTP human tumour cell line panel, 48 h
786-0 renal = test system: 786-0 renal
A549 NSCLC = test system: A549 NSCLC
ACHN renal = test system: ACHN renal
CAKI-1 renal = test system: CAKI-1 renal
CCRF-CEM leukemia = test system: CCRF-CEM leukemia
COLO 205 colon = test system: COLO 205 colon
DU-145 prostate = test system: DU-145 prostate
EKVX NSCLC = test system: EKVX NSCLC
HCC-2998 colon = test system: HCC-2998 colon
HCT-116 colon = test system: HCT-116 colon
HCT-15 colon = test system: HCT-15 colon
HL-60(TB) leukemia = test system: HL-60(TB) leukemia
HOP-62 NSCLC = test system: HOP-62 NSCLC
HOP-92 NSCLC = test system: HOP-92 NSCLC
HS 578T breast = test system: HS 578T breast
HT29 colon = test system: HT29 colon
IGROV1 ovarian = test system: IGROV1 ovarian
K-562 leukemia = test system: K-562 leukemia
KM12 colon = test system: KM12 colon
LOX IMVI melanoma = test system: LOX IMVI melanoma
M14 melanoma = test system: M14 melanoma
MALME-3M melanoma = test system: MALME-3M melanoma
MCF7 breast = test system: MCF7 breast
MDA-MB-231 breast = test system: MDA-MB-231 breast
MDA-MB-435 = test system: MDA-MB-435
MDA-N = test system: MDA-N
MOLT-4 leukemia = test system: MOLT-4 leukemia
NCI-H226 lung = test system: NCI-H226 lung
NCI-H23 lung = test system: NCI-H23 lung
NCI-H460 lung = test system: NCI-H460 lung
NCI/ADR-RES ovarian = test system: NCI/ADR-RES ovarian
OVCAR-3 ovarian = test system: OVCAR-3 ovarian
OVCAR-4 ovarian = test system: OVCAR-4 ovarian
OVCAR-5 ovarian = test system: OVCAR-5 ovarian
OVCAR-8 ovarian = test system: OVCAR-8 ovarian
PC-3 prostate = test system: PC-3 prostate
RPMI-8226 leukemia = test system: RPMI-8226 leukemia
SF-268 CNS = test system: SF-268 CNS
SF-295 CNS = test system: SF-295 CNS
SF-539 CNS = test system: SF-539 CNS
SK-MEL-2 melanoma = test system: SK-MEL-2 melanoma
SK-MEL-28 melanoma = test system: SK-MEL-28 melanoma
SK-MEL-5 melanoma = test system: SK-MEL-5 melanoma
SK-OV-3 ovarian = test system: SK-OV-3 ovarian
SN12C renal = test system: SN12C renal
SNB-75 CNS = test system: SNB-75 CNS
SR leukemia = test system: SR leukemia
SW-620 colon = test system: SW-620 colon
T-47D breast = test system: T-47D breast
TK-10 renal = test system: TK-10 renal
U251 CNS = test system: U251 CNS
UACC-257 melanoma = test system: UACC-257 melanoma
UACC-62 melanoma = test system: UACC-62 melanoma
UO-31 renal = test system: UO-31 renal

Compound: CCOC(=O)C1Cc2ccc(C)cc2C1=O (centres undefined)
- TGI (786-0 renal): > 100 µM
- TGI (A549 NSCLC): > 100 µM
- TGI (ACHN renal): > 100 µM
- TGI (CAKI-1 renal): > 100 µM
- TGI (CCRF-CEM leukemia): > 100 µM
- TGI (COLO 205 colon): > 100 µM
- TGI (DU-145 prostate): > 100 µM
- TGI (EKVX NSCLC): > 100 µM
- TGI (HCC-2998 colon): > 100 µM
- TGI (HCT-116 colon): > 100 µM
- TGI (HCT-15 colon): > 100 µM
- TGI (HL-60(TB) leukemia): 69.9 µM
- TGI (HOP-62 NSCLC): > 100 µM
- TGI (HOP-92 NSCLC): > 100 µM
- TGI (HS 578T breast): > 100 µM
- TGI (HT29 colon): > 100 µM
- TGI (IGROV1 ovarian): > 100 µM
- TGI (K-562 leukemia): > 100 µM
- TGI (KM12 colon): > 100 µM
- TGI (LOX IMVI melanoma): > 100 µM
- TGI (M14 melanoma): > 100 µM
- TGI (MALME-3M melanoma): > 100 µM
- TGI (MCF7 breast): > 100 µM
- TGI (MDA-MB-231 breast): > 100 µM
- TGI (MDA-MB-435): > 100 µM
- TGI (MDA-N): > 100 µM
- TGI (MOLT-4 leukemia): > 100 µM
- TGI (NCI-H226 lung): > 100 µM
- TGI (NCI-H23 lung): > 100 µM
- TGI (NCI-H460 lung): > 100 µM
- TGI (NCI/ADR-RES ovarian): > 100 µM
- TGI (OVCAR-3 ovarian): > 100 µM
- TGI (OVCAR-4 ovarian): > 100 µM
- TGI (OVCAR-5 ovarian): > 100 µM
- TGI (OVCAR-8 ovarian): > 100 µM
- TGI (PC-3 prostate): > 100 µM
- TGI (RPMI-8226 leukemia): > 100 µM
- TGI (SF-268 CNS): > 100 µM
- TGI (SF-295 CNS): > 100 µM
- TGI (SF-539 CNS): > 100 µM
- TGI (SK-MEL-2 melanoma): > 100 µM
- TGI (SK-MEL-28 melanoma): > 100 µM
- TGI (SK-MEL-5 melanoma): > 100 µM
- TGI (SK-OV-3 ovarian): > 100 µM
- TGI (SN12C renal): > 100 µM
- TGI (SNB-75 CNS): > 100 µM
- TGI (SR leukemia): > 100 µM
- TGI (SW-620 colon): > 100 µM
- TGI (T-47D breast): > 100 µM
- TGI (TK-10 renal): > 100 µM
- TGI (U251 CNS): > 100 µM
- TGI (UACC-257 melanoma): > 100 µM
- TGI (UACC-62 melanoma): > 100 µM
- TGI (UO-31 renal): > 100 µM
